Results on 18 compounds are retold here after patent US8815919B2, “Oxadiazole derivatives” (Merck Serono SA, priority 2009, dated 2014).

Where a name gives a salt, the structure may show the parent alone. Read-outs that look alike come from different tables or passages of the source.

As a reminder, the melting point is the temperature of the solid-liquid transition. As a reminder, the Ki is the dissociation constant of the complex between target and ligand, obtained from inhibition or displacement.

For data set [1], the target named is T1, S1P1 (Homo sapiens, UniProt P21453). In words: Receptor binding assay, [33P]sphingosine 1-phosphate competition, S1P1 membranes, WGA SPA beads. The procedure, abridged: (§1)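 Competition of [33P]S1P ([…]) on CHO cell membranes with WGA SPA beads in 50 mM HEPES pH 7.5, 5 mM MgCl2, 100 mM NaCl, 0.4% fatty acid-free BSA; 60 min at RT. Triplicates normalised to total binding and nonspecific binding (1000-fold excess unlabeled S1P).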
Target sequence in this assay (P21453 whole entry, species assumed): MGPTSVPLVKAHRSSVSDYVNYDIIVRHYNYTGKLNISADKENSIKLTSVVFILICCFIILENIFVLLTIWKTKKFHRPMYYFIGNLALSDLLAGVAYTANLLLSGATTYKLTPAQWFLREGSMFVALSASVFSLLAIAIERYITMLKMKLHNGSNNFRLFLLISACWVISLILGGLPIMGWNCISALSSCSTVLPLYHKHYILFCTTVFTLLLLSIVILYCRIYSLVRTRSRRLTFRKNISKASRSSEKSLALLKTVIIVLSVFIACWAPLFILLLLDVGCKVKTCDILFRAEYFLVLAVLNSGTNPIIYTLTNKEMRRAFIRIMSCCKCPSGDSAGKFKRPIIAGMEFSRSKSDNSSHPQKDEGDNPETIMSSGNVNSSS

In data set [2] the target is T1, S1P1. Description: 35S-GTPγS binding on membranes of CHO cells expressing S1P1. It counts as biochemical. To be noted: read-out: S1P1/GTPG EC50. As to the method:
(§2) Membranes were prepared from CHO cells expressing S1P1 or S1P3 for use in ligand and […] binding studies. Cells were suspended in 50 mM TRIS, pH 7.4, 2 mM EDTA, 250 mM Sucrose (buffer A) and 1× Complete protease inhibitor cocktail (Roche), and disrupted at 4° C. by N2 decompression using a cell disruption bomb (Parr Instrument). Following centrifugation at 1000 RPM for 10 min at 4° C., the supernatant was diluted (2×) in buffer A and centrifuged again at 19000 RPM for 75 min at 4° C. The pellet was then suspended in 10 mM HEPES, pH 7.4, 1 mM EDTA, 250 mM Sucrose (Buffer B), and 1× Complete EDTA-free protease inhibitor cocktail and homogenized using a potter. Membranes were flash frozen in liquid N2 and stored at −80° C.
(§3) Membranes (1 to 10 μg protein) prepared as described above, were incubated in 96-well Scintiplates (PerkinElmer) with test compounds diluted in DMSO, in 140 μl of 20 mM HEPES, pH 7.4, 10 mM MgCl2, 2 μg/well Saponin, 0.2% fatty acid free BSA (Assay buffer), 125 mM NaCl and 1.5 μM GDP. The assay was initiated with the addition of 60 μl of 1.5 nM [35S]-GTPγS (1100 Ci/mmol; GE Healthcare) in assay buffer. After 60 min incubation at 30° C. on a shaker, plates were centrifuged for 10 min at 2000 RPM. Supernatant was discarded and membrane bound radioactivity was measured on a PerkinElmer 1450 MicroBeta counter. Triplicate samples were averaged and expressed as % response relative to S1P activation in absence of compound (n=2).
(§4) The “potency” or the “activity” of the compounds is determined by the EC50 values as evaluated in the above described 35S-GTPγS binding assay.
Target sequence in this assay (P21453 whole entry, species assumed): as above

Data set [3] deals with T1, S1P1. In words: S1P1 internalization assay in S1P1-U2OS cells (S1P1-EGFP), cell imaging. Further details: host or cells: U2OS (human bone osteosarcoma epithelial cells), CMV promoter, geneticin selection. To be noted: 1 hour incubation. Type of data set: cell-based. The procedure, abridged: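 U2OS cells stably expressing human S1P1-EGFP, plated overnight in 1% FCS medium, then serum-starved 2 h in 0.1% fatty-acid-free BSA before 1 h compound exposure at 37 °C. After PFA fixation and Hoechst staining, internalization imaged as EGFP spot count per nucleus.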
Target sequence in this assay (P21453 whole entry): as the sequence (P21453 whole entry, species assumed) above

For data set [4], the target named is T2, S1P3 (Homo sapiens, UniProt Q99500). Description: 35S-GTPγS binding on membranes of CHO cells expressing S1P3. To be noted: read-out: S1P3/GTPG EC50. It counts as biochemical. Here is the method: as §2, §3, §4
T2 sequence (Q99500 whole entry, species assumed): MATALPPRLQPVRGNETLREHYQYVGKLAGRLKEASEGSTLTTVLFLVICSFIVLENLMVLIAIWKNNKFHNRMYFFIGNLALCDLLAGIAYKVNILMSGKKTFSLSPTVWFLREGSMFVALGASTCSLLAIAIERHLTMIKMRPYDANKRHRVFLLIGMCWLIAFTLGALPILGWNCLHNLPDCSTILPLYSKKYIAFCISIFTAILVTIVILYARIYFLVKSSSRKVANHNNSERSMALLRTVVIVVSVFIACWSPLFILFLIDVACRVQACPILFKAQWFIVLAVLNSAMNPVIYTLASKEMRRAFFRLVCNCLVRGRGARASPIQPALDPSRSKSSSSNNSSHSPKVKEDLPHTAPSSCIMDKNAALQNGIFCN
(GTPγS resists hydrolysis and so accumulates on activated G proteins.)

The target in data set [5] is T2, S1P3. In words: Receptor binding assay, [33P]sphingosine 1-phosphate competition, S1P3 membranes, WGA SPA beads. The procedure, abridged: as §1
Setting [6] is: 96 well-plate, read-out: S1P1 binding Ki (M) (96 well-plate).
Setting [7] is: 96 well-plate, read-out: S1P3 binding Ki (M) (96 well-plate).
[8] abbreviates: 384 well-plate, read-out: S1P3 binding Ki (M) (384 well-plate).

As for `Cc1cc(-c2nc(-c3ccc(CN(C)CC(=O)O)cc3)no2)ccc1-c1ccccc1C(F)F` (as salt: hydrochloride) [Example 137, N-(4-{5-[2′-(difluoromethyl)-2-methylbiphenyl-4-yl]-1,2,4-oxadiazol-3-yl}benzyl)-N-methylglycine, hydrochloride salt], the melting point lay in the range of 229 to 234 °C.
With `COCc1cc(-c2nc(-c3ccc(CN(C)CC(=O)O)c(F)c3)no2)ccc1-c1ccccc1Cl` (as salt: hydrochloride) [Example 119, N-(4-{5-[2′-chloro-2-(methoxymethyl)biphenyl-4-yl]-1,2,4-oxadiazol-3-yl}-2-fluorobenzyl)-N-methylglycine, hydrochloride salt], the melting point was 181 to 188 °C.
With `COCc1cc(-c2nc(-c3cccc(CN(C)CC(=O)O)c3)no2)ccc1-c1ccccc1Cl` [Example 11, N-(3-{5-[2′-chloro-2-(methoxymethyl)biphenyl-4-yl]-1,2,4-oxadiazol-3-yl}benzyl)-N-methylglycine, hydrochloride salt], the Ki on S1P1 [1] (setting [6]) was found to be 6.21e-10 M. Moreover, the figures for the EC50 at S1P1 [2], at S1P1 [3] and on S1P3 [4] were 2.74 nM, 10.6 nM and 673 nM, respectively.
For `COCc1cc(-c2nc(-c3cccc(CN(C)CC(=O)O)c3)no2)ccc1-c1ccc(F)cc1C` (as salt: hydrochloride) [Example 36, N-(3-{5-[4′-fluoro-2-(methoxymethyl)-2′-methylbiphenyl-4-yl]-1,2,4-oxadiazol-3-yl}benzyl)-N-methylglycine, hydrochloride salt], the melting point is 214 to 216 °C.
As to `COCc1cc(-c2nc(-c3cccc(COCCC(=O)O)c3)no2)ccc1-c1ccccc1C` [Example 7, 3-[(3-{5-[2-(methoxymethyl)-2′-methylbiphenyl-4-yl]-1,2,4-oxadiazol-3-yl}benzyl)oxy]propanoic acid], at S1P1 [1] (setting [6]), the Ki was 3.29e-09 M. Moreover, the EC50 stood at 8.05 nM at S1P1 [2], 25.5 nM on S1P1 [3] and 2010 nM at S1P3 [4].
As for `COCc1cc(-c2nc(-c3cccc(CN(C)CC(=O)O)c3)no2)ccc1-c1cccc(F)c1C` (as salt: hydrochloride) [Example 35, N-(3-{5-[3′-fluoro-2-(methoxymethyl)-2′-methylbiphenyl-4-yl]-1,2,4-oxadiazol-3-yl}benzyl)-N-methylglycine, hydrochloride salt], the melting point was 216 to 218 °C.
In the case of `COCc1cc(-c2nc(-c3cc(F)cc(CN(C)CCC(=O)O)c3)no2)ccc1-c1ccccc1C` [Example 21, N-(3-fluoro-5-{5-[2-(methoxymethyl)-2′-methylbiphenyl-4-yl]-1,2,4-oxadiazol-3-yl}benzyl)-N-methyl-beta-alanine, hydrochloride salt], the Ki at S1P1 [1] (setting [6]) was 1.17e-10 M; on S1P1 [1] (384 well-plate, read-out: S1P1 binding Ki (M) (384 well-plate)), 9.99e-10 M; at S1P3 [5] (setting [7]), 1.13e-08 M; on S1P3 [5] (setting [8]), 1.56e-08 M. Further, the results for the EC50 on S1P1 [2], on S1P1 [3] and on S1P3 [4] were 0.332 nM, 4.52 nM and 15 nM, respectively.
`CC1CCCCN1c1ccc(-c2nc(-c3cccc(CN(C)CC(=O)O)c3)no2)cc1C(F)(F)F` (stereo not shown) [Example 13, N-methyl-N-(3-{5-[4-(2-methylpiperidin-1-yl)-3-(trifluoromethyl)phenyl]-1,2,4-oxadiazol-3-yl}benzyl)glycine]: the Ki at S1P1 [1] (setting [6]) worked out at 4.58e-10 M; at S1P3 [5] (setting [7]), 8.95e-08 M; at S1P3 [5] (setting [8]), 2.75e-07 M. The EC50 came to 0.96 nM at S1P1 [2], 7.38 nM on S1P1 [3] and 470 nM at S1P3 [4].
Regarding `COCc1cc(-c2nc(-c3cccc(CN(C)CC(=O)O)c3)no2)ccc1-c1ccccc1F` [Example 10, N-(3-{5-[2′-fluoro-2-(methoxymethyl)biphenyl-4-yl]-1,2,4-oxadiazol-3-yl}benzyl)-N-methylolycine, hydrochloride salt], the Ki at S1P1 [1] (setting [6]) turned out to be 1.79e-10 M; on S1P3 [5] (setting [7]), 2.33e-08 M; on S1P3 [5] (setting [8]) it was 1.22e-07 M. Besides, the values for the EC50 on S1P1 [2], on S1P1 [3] and at S1P3 [4] were 0.907 nM, 3.31 nM and 130 nM, respectively.
`COCc1cc(-c2nc(-c3ccc(CN(C)CC(=O)O)cc3)no2)ccc1-c1ccccc1Cl` (as salt: hydrochloride) [Example 118, N-(4-{5-[2′-chloro-2-(methoxymethyl)biphenyl-4-yl]-1,2,4-oxadiazol-3-yl}benzyl)-N-methylglycine, hydrochloride salt] gave a melting point of 194 to 200 °C.
As to `COCc1cc(-c2nc(-c3cccc(S(C)(=O)=O)c3)no2)ccc1N1CCCCC1C` (stereo not shown) [Example 6, 1-(2-(methoxymethyl)-4-{3-[3-(methylsulfonyl)phenyl]-1,2,4-oxadiazol-5-yl}phenyl)-2-methylpiperidine, hydrochloride salt], the Ki at S1P1 [1] (setting [6]) stood at 1.24e-09 M. Further, the EC50 is 1.9 nM at S1P1 [2], 4.39 nM on S1P1 [3] and 2280 nM at S1P3 [4].
Consider `CCc1ccccc1-c1ccc(-c2nc(-c3ccc(C(=O)NCCC(=O)O)c(F)c3)no2)cc1COC` [Example 16, N-(4-{5-[2′-ethyl-2-(methoxymethyl)biphenyl-4-yl]-1,2,4-oxadiazol-3-yl}-2-fluorobenzoyl)-beta-alanine], for which the Ki on S1P1 [1] (setting [6]) stood at 2.22e-09 M. Further, the EC50 turned out to be 6.07 nM on S1P1 [2] and 531 nM at S1P3 [4].
In the case of `COCc1cc(-c2nc(-c3cccc(COCC(=O)O)c3)no2)ccc1N1CCCCC1C` (stereo not shown) [Example 4, [(3-{5-[3-(methoxymethyl)-4-(2-methylpiperidin-1-yl)phenyl]-1,2,4-oxadiazol-3-yl}benzyl)oxy]acetic acid, hydrochloride salt], the Ki came out at 4.76e-10 M on S1P1 [1] (setting [6]) and 7.53e-07 M at S1P3 [5] (setting [8]). For the same compound, the EC50 on S1P1 [2] amounted to 1.05 nM; at S1P3 [4] it was 313 nM.
For the compound `CC1CCCCN1c1ccc(-c2nc(-c3cccc(COCCC(=O)O)c3)no2)cc1C(F)(F)F` (stereo not shown) [Example 12, 3-[(3-{5-[4-(2-methylpiperidin-1-yl)-3-(trifluoromethyl)phenyl]-1,2,4-oxadiazol-3-yl}benzyl)oxy]propanoic acid, hydrochloride salt], the Ki at S1P1 [1] (setting [6]) stood at 3.08e-09 M. Besides, the values for the EC50 at S1P1 [2], on S1P1 [3] and at S1P3 [4] were 4.61 nM, 9.84 nM and 692 nM, respectively.
Turning to `COCc1cc(-c2nc(-c3cccc(CN(C)CC(=O)O)c3)no2)ccc1-c1cc(F)ccc1C` (as salt: hydrochloride) [Example 37, N-(3-{5-[5′-fluoro-2-(methoxymethyl)-2′-methylbiphenyl-4-yl]-1,2,4-oxadiazol-3-yl}benzyl)-N-methylglycine, hydrochloride salt], the melting point was 177 to 183 °C.
On to `CCc1ccccc1-c1ccc(-c2nc(-c3cccc(CNCCC(=O)O)c3)no2)cc1COC` [Example 18, N-(3-{5-[2′-ethyl-2-(methoxymethyl)biphenyl-4-yl]-1,2,4-oxadiazol-3-yl}benzyl)-beta-alanine, hydrochloride salt], for which, at S1P1 [1] (setting [6]), the Ki is 1.68e-10 M. In addition, the EC50 is 0.47 nM at S1P1 [2] and 4.96 nM on S1P3 [4].
Turning to `COCc1cc(-c2nc(-c3ccc(OCCO)cc3)no2)ccc1-c1ccccc1C` [Example 23, 2-(4-{5-[2-(methoxymethyl)-2′-methylbiphenyl-4-yl]-1,2,4-oxadiazol-3-yl}phenoxy)ethanol], the Ki at S1P1 [1] (setting [6]) was found to be 2.17e-09 M. Also, the EC50 at S1P1 [2] turned out to be 7.07 nM; at S1P3 [4] it was 199 nM.
Compound `COC(C)c1cc(-c2nc(-c3ccc(CN(C)CC(=O)O)cc3)no2)ccc1-c1ccccc1C` (stereo not shown) (as salt: hydrochloride) (hydrate or solvate) [Example 140, N-(4-{5-[2-(1-methoxyethyl)-2′-methylbiphenyl-4-yl]-1,2,4-oxadiazol-3-yl}benzyl)-N-methylglycine, hydrochloride salt] displayed a melting point of 179 to 181 °C.
